Tested on: L-amino acid oxidase
Test: Substrate specificity: specific activity and Km (Lineweaver-Burk) with various L-amino acids, H2O2 detected with ABTS and CiP
Type: biochemical, Trichoderma harzianum
Conditions: phosphate buffer pH 8.5, room temperature; for Km: Lineweaver-Burk plots; for Specific Activity: 20 minutes
Description: The specific activity of the purified L-amino acid oxidase was 16 U/mg determined in a 50 mM phosphate buffer at pH 8.5, 20° C. with 1 mM L-arginine as substrate. One unit of enzyme will form 1 μmole of hydrogen peroxide per minute. The amount of protein is quantified assuming that a solution of the L-amino acid oxidase having an optical density of 1 determined at 280 nm contains 1 mg of protein/ml. The L-amino acid oxidase yield was approx. 50 mg of pure protein per litre of culture medium.
In the following characterization experiments, detection of H2 O2 was carried out using a Coprinus cinereus peroxidase (CiP), obtained according to WO 92/16634, at a level of 4.5 PODU/ml, and 0.4 mM ABTS in phosphate buffer at pH 7.0. The hydrogen peroxide concentrations were determined relative to a freshly prepared hydrogen peroxide standard solution.
The activity of the L-amino acid oxidase was determined with various L-amino acids as substrates. The L-amino acid oxidase was incubated with substrate in a phosphate buffer at pH 8.5 and room temperature for 20 minutes. Generated hydrogen peroxide was detected using ABTS and CiP as described above. The specific activity was determined as described in Example 2 above.
Km values for the various substrates were determined by plotting values of 1/v versus 1/s (Lineweaver-Burk plots).

`N=C(N)NCCC[C@H](N)C(=O)O` [L-arginine] was tested, and the Km was 1.2 mM, the “Specific Activity” value (Substrate Conc. 1 (m/M)) was 16 U/mg and the “Specific Activity” value (Substrate Conc. 10 (m/M)) was 30 U/mg.

With `NC(=O)C[C@H](N)C(=O)O` [L-asparagine] the Km was 20 mM and the “Specific Activity” value (Substrate Conc. 80 (m/M)) was 7 U/mg.

For `CC(C)C[C@H](N)C(=O)O` [L-leucine], the Km was 40 mM and the “Specific Activity” value (Substrate Conc. 80 (m/M)) was 16 U/mg.

For `NCCCC[C@H](N)C(=O)O` [L-lysine], the Km was 0.2 mM and the “Specific Activity” value (Substrate Conc. 1 (m/M)) was 7 U/mg.

In the case of `CSCC[C@H](N)C(=O)O` [L-methionine], the Km is reported as 15 mM and the “Specific Activity” value (Substrate Conc. 80 (m/M)) is reported as 8 U/mg.

For `N[C@@H](Cc1ccccc1)C(=O)O` [L-phenylalanine], the Km was 25 mM and the “Specific Activity” value (Substrate Conc. 80 (m/M)) was 25 U/mg.

Reference: US5801035A, “L-amino acid oxidase” (Novo Nordisk A/S, priority 1993, dated 1998)
